The values that follow come from patent US10786485B1, “Charged ion channel blockers and methods for use” (Nocion Therapeutics, Inc., priority 2019, dated 2020).

Data set [1] addresses T1, NaV1.7 (Homo sapiens, UniProt Q15858).
T1 construct: expressed in transfected cells; host or cells: tetracycline-inducible cell line kept under hygromycin and blasticidin
In words: Whole cell patch clamp, internal block of Nav1.7 current. It is filed as cell-based. Particulars: test concentration of 10 μM; compound dissolved in internal solution; 5 Hz stimulation; read-out: Nav1.7 intracellular inhibition. The procedure: NaV1.7 was expressed upon induction with tetracycline. Cells were cultured in DMEM containing 10% dialyzed Fetal Bovine Serum (VWR, Radnor, Pa.), 1% Glutamax (VWR, Radnor, Pa.), 1% Penicillin-Streptomycin (VWR, Radnor, Pa.), 100 mg/L Hygromycin (Thermo Fisher Scientific, Waltham, Mass. and 5 mg/L Blasticidin (Alfa Aesar, Haverhill, Mass.). Cells were grown and maintained at 37° C. in a humidified environment containing 10% CO2 in air. Cells were detached from the culture flask for passage and harvested using 0.05% Trypsin-EDTA (Thermo Fisher Scientific, Waltham, Mass.). To induce NaV1.7, cells were induced with tetracycline (0.1-1 μg/mL, IBI Scientific, Peosta, Iowa) the day before recording and plated onto 24-well plates. […] For one 24-well plate, 2 mL of cell suspension was mixed with 23 mL of fresh growth media and 0.1-1 μg/mL tetracycline added. 1 ml of mixed media with cells was then added to each well of a 24-well plate, with a 12 mm coverslip already placed in the bottom of the well. Cells were then incubated in 37° C. and 10% CO2 overnight. The intracellular solution contained the following (in mM) CsCl 135, NaCl 10, EGTA 10, HEPES 10, MgCl2 2, adjusted to pH 7.2 with CsOH. The external solution was a normal Ringer solution containing (in mM) NaCl 155, HEPES 10, glucose 10, KCl 3.5, CaCl2 1.5, MgCl2 1 adjusted to pH 7.4 with NaOH. CsCl is from Alfa Aesar, Haverhill, Mass. All other chemicals are from Sigma-Aldrich, St. Louis, Mo. In order to test the degree of internal block by test compounds the compounds were dissolved in internal solution at the indicated test concentration. […] In order to test the degree of external block by test compounds the compounds were dissolved in external solution at the indicated test concentration. 18-24 hours after cells were induced with tetracycline, coverslips were placed into a chamber filled with Normal Ringer solution at room temperature and the chamber placed on a microscope. Pipettes were pulled from borosilicate glass on a P97 puller (Sutter Instrument, Novato, Calif.) and polished with a MF-830 Microforge (Narishige International USA, Inc, Amityville, N.Y.) to have a resistance of 1.5-2.5 MΩ when filled with CsCl internal solution at room temperature. Healthy cells (those that are round and translucent with no visible blemishes) were chosen for seal formation. A seal was formed between the pipette and the cell, and a brief pulse of suction was used to “break in” and establish the whole-cell configuration. The membrane potential was held at −100 mV before the voltage protocol began. Only cells with series resistance between 1.5-5 MΩ were retained for analysis. The voltage protocol was as follows: Cells were held at −100 mV for 12 ms followed by a hyperpolarizing step to −105 mV for 12 ms to monitor the leak. Cells were then stepped back to −100 mV for 40 ms. Cells were then depolarized to −20 mV for 10 ms and then returned to −100 mV for 26 ms (The FIGURE). Once the recording was started, the voltage protocol was run at 30 second intervals for 5 minutes to get a stable baseline. […] Currents were recorded using PatchMaster software with Heka EPC10 (HEKA Electronics, Lambrecht, Germany). […] The data was plotted using the Patchmaster software (HEKA Electronics, Lambrecht, Germany) and analyzed by plotting the minimum current during the voltage step to −20 mV (peak inward current) as a function of time. […]
On the technique in general: Patch clamp records ionic current or voltage across a cell membrane.

Data set [2] deals with T1, NaV1.7. Briefly: Whole cell patch clamp, external block of Nav1.7 current. It is filed as cell-based. The settings on record: test concentration of 30 μM; compound in external solution for 5 minutes; 5 Hz stimulation; read-out: Nav1.7 extracellular inhibition. The procedure: NaV1.7 was expressed upon induction with tetracycline. Cells were cultured in DMEM containing 10% dialyzed Fetal Bovine Serum (VWR, Radnor, Pa.), 1% Glutamax (VWR, Radnor, Pa.), 1% Penicillin-Streptomycin (VWR, Radnor, Pa.), 100 mg/L Hygromycin (Thermo Fisher Scientific, Waltham, Mass. and 5 mg/L Blasticidin (Alfa Aesar, Haverhill, Mass.). Cells were grown and maintained at 37° C. in a humidified environment containing 10% CO2 in air. Cells were detached from the culture flask for passage and harvested using 0.05% Trypsin-EDTA (Thermo Fisher Scientific, Waltham, Mass.). To induce NaV1.7, cells were induced with tetracycline (0.1-1 μg/mL, IBI Scientific, Peosta, Iowa) the day before recording and plated onto 24-well plates. […] For one 24-well plate, 2 mL of cell suspension was mixed with 23 mL of fresh growth media and 0.1-1 μg/mL tetracycline added. 1 ml of mixed media with cells was then added to each well of a 24-well plate, with a 12 mm coverslip already placed in the bottom of the well. Cells were then incubated in 37° C. and 10% CO2 overnight. The intracellular solution contained the following (in mM) CsCl 135, NaCl 10, EGTA 10, HEPES 10, MgCl2 2, adjusted to pH 7.2 with CsOH. The external solution was a normal Ringer solution containing (in mM) NaCl 155, HEPES 10, glucose 10, KCl 3.5, CaCl2 1.5, MgCl2 1 adjusted to pH 7.4 with NaOH. CsCl is from Alfa Aesar, Haverhill, Mass. All other chemicals are from Sigma-Aldrich, St. Louis, Mo. In order to test the degree of internal block by test compounds the compounds were dissolved in internal solution at the indicated test concentration. […] In order to test the degree of external block by test compounds the compounds were dissolved in external solution at the indicated test concentration. 18-24 hours after cells were induced with tetracycline, coverslips were placed into a chamber filled with Normal Ringer solution at room temperature and the chamber placed on a microscope. Pipettes were pulled from borosilicate glass on a P97 puller (Sutter Instrument, Novato, Calif.) and polished with a MF-830 Microforge (Narishige International USA, Inc, Amityville, N.Y.) to have a resistance of 1.5-2.5 MΩ when filled with CsCl internal solution at room temperature. Healthy cells (those that are round and translucent with no visible blemishes) were chosen for seal formation. A seal was formed between the pipette and the cell, and a brief pulse of suction was used to “break in” and establish the whole-cell configuration. The membrane potential was held at −100 mV before the voltage protocol began. Only cells with series resistance between 1.5-5 MΩ were retained for analysis. The voltage protocol was as follows: Cells were held at −100 mV for 12 ms followed by a hyperpolarizing step to −105 mV for 12 ms to monitor the leak. Cells were then stepped back to −100 mV for 40 ms. Cells were then depolarized to −20 mV for 10 ms and then returned to −100 mV for 26 ms (The FIGURE). Once the recording was started, the voltage protocol was run at 30 second intervals for 5 minutes to get a stable baseline. This is followed by 5 Hz stimulation of the same voltage protocol run until the end of experiment. […] Currents were recorded using PatchMaster software with Heka EPC10 (HEKA Electronics, Lambrecht, Germany). […] The data was plotted using the Patchmaster software (HEKA Electronics, Lambrecht, Germany) and analyzed by plotting the minimum current during the voltage step to −20 mV (peak inward current) as a function of time. […]

Data set [3] can be described thus: PAMPA membrane permeability assay. It counts as in vitro ADME. Particulars: GIT lipid, buffer pH 7.4, incubated 4 hours. The procedure:
The PAMPA assay (pION, Inc., Woburn Mass.) was used to determine the ability of compounds of the invention to cross an artificial lipid membrane by passive diffusion. Test compounds were dissolved in DMSO (10 mM) and diluted 200-fold in buffer (pION Inc., pH 7.4) to provide 50 uM stock solutions. Buffer (150 μL) was added to a UV blank plate and stock solutions (150 μL) were transferred to a UV reference plate. The blank and reference spectrum were read using a spectrophotometer. Stock solutions (200 μL) were added to the donor plate of the PAMPA sandwich plate and an accept plate painted with GIT lipid (pION Inc, 5 μL) was placed on top. Buffer (200 μL) was added to the acceptor plate and the PAMPA sandwich plate was incubated for 4 hours. Aliquots (150 μL) from the acceptor plate were added to a UV plate and read as acceptor spectrum. Aliquots (150 μL) of the donor solutions were added to a UV analysis plate and read as donor spectrum. The permeability coefficient of test compounds was calculated using PAMPA Explorer™ software (version 3.5.0.4) based on the AUC of the reference plate, the donor plate, and the acceptor plate.
For orientation: PAMPA measures passive passage across an artificial lipid membrane.

Counter-ions that a name gives are not always drawn.

T1 sequence (Q15858 whole entry): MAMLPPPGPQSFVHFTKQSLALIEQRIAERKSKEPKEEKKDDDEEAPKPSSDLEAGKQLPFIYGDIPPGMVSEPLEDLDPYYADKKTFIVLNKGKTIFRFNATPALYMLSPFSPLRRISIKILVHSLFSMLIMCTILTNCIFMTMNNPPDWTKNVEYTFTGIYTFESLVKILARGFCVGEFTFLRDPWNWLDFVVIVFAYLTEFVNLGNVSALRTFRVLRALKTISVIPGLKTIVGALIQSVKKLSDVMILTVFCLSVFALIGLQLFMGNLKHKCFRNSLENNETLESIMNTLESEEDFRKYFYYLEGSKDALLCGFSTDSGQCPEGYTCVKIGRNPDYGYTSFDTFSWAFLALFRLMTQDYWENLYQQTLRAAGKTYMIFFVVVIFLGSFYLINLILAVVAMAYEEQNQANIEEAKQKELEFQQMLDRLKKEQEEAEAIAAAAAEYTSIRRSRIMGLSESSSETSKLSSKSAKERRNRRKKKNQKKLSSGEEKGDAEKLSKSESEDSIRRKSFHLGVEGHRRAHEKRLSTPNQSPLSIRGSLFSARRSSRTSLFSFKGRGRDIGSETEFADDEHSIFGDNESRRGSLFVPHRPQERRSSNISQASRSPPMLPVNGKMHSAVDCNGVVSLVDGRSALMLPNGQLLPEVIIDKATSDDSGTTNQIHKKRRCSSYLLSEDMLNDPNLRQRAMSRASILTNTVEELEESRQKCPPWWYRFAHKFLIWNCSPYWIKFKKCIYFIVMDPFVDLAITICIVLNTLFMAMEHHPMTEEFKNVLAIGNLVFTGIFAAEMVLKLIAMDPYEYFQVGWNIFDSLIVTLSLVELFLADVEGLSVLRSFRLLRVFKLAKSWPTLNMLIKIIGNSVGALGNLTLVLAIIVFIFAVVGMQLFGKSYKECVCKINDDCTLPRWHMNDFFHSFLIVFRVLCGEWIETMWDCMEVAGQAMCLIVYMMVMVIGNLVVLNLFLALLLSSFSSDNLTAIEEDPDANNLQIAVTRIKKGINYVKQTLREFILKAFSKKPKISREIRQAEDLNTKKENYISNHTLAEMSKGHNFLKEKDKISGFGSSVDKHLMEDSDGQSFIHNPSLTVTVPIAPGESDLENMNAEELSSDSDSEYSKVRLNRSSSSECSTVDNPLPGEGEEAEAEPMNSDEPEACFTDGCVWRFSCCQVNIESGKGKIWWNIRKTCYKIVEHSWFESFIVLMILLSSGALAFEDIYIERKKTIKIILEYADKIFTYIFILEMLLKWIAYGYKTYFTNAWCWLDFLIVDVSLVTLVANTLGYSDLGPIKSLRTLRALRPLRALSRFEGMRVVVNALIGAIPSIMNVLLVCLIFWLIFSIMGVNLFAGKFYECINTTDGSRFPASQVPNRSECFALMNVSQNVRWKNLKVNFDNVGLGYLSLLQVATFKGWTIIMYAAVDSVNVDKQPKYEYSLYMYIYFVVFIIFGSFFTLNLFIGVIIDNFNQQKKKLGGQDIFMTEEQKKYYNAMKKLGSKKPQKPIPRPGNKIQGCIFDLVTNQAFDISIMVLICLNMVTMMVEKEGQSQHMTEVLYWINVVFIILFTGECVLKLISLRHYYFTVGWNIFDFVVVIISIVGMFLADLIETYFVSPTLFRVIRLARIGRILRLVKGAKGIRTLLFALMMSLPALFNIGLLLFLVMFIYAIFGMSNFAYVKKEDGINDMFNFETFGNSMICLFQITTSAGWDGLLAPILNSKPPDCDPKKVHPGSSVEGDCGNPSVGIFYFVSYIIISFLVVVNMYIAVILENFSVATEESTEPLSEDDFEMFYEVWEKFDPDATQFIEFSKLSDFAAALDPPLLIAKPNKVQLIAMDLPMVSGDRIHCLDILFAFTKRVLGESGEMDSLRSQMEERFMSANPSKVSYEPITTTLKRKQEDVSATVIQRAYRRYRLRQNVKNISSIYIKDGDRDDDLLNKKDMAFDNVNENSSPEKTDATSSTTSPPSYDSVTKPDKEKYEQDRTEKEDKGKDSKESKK

Usually inhibition stands for the drop in the measured response relative to a control, in per cent. With `Cc1cn(C)[n+](CC(=O)Nc2c(C)cccc2C)c1` [1′A, 2-(2-((2,6-dimethylphenyl)amino)-2-oxoethyl)-1,4-dimethyl-1H-pyrazol-2-ium bromide], the inhibition at 10 µM at NaV1.7 [1] is above 65%. Also, the inhibition at 30 µM on NaV1.7 [2] was below 25%.
The corresponding values for `Cc1cccc(C)c1NC(=O)C[n+]1cccn1-c1ccccc1` [4′A, 2-(2-((2,6-dimethylphenyl)amino)-2-oxoethyl)-1-phenyl-1H-pyrazol-2-ium Formate] are above 65% and below 25%.
Broadly, the Papp is the rate of passage across a membrane or cell layer, normalised by area and donor concentration. A high value points to fast passage. On to `Cc1cccc(C)c1NC(=O)C[n+]1cccn1CC(C)C.[Br-]` [Compound 2′A, 2-(2-((2,6-dimethylphenyl)amino)-2-oxoethyl)-1-isobutyl-1H-pyrazol-2-ium bromide], for which the inhibition at 10 µM at NaV1.7 [1] was above 65%. In addition, the inhibition at 30 µM at NaV1.7 [2] is below 25%. In data set [3], this compound gave a Papp at 4 h, 50 µM of at most 1.2 ×10⁻⁶ cm/s.
`Cc1cccc(C)c1NC(=O)C[n+]1cccn1C1CCCCC1.[Br-]` [Compound 3′A, 1-cyclohexyl-2-(2-((2,6-dimethylphenyl)amino)-2-oxoethyl)-1H-pyrazol-2-ium bromide]: the inhibition at 10 µM at NaV1.7 [1] was above 65%. The inhibition at 30 µM on NaV1.7 [2] is below 25%. The Papp at 4 h, 50 µM in data set [3] was at most 1.2 ×10⁻⁶ cm/s.
In the case of `CCNC(=O)Cn1ccc[n+]1CC(=O)Nc1c(C)cccc1C.[Br-]` [Compound 5′A, 2-(2-((2,6-dimethylphenyl)amino)-2-oxoethyl)-1-(2-(ethylamino)-2-oxoethyl)-1H-pyrazol-2-ium bromide], on NaV1.7 [1], the inhibition at 10 µM is above 65%. In addition, the inhibition at 30 µM on NaV1.7 [2] is below 25%. Moreover, the apparent permeability coefficient (Papp) at 4 h, 50 µM in data set [3] was at most 1.2 ×10⁻⁶ cm/s.
